# Test results published in patent publication US20240124483A1, “Methods for the Treatment of Fibrotic Disease” (SHY Therapeutics, LLC, priority 2021, published 2024).
# Like-named read-outs stand apart in the source and are kept apart here.
# How the values were obtained:
# KRas wild type = KRas wild type (Homo sapiens (Human), UniProt P01116); experiment: Ras GTP Binding Domain Inhibition Assay, KRas wild type
# Summary of the method: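 His-tagged KRas proteins coated on nickel plates overnight at 4° C in Tris buffer (pH 7.4 or 7.0, MgCl2, DTT); compounds at 20 μM final (or serial dilutions for IC50) for 3 h at room temperature, ±Sos (residues 556-1049) in final hour. Bound Cy3- or Cy5-GTP (100 nM, 45 min) read by fluorescence after washing.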
# JNK = JNK Activation Assay in Panc-1 (western blot); type: cell-based, Human; design: key: Y = yes; N = No; settings: at 10 μM
# Summary of the method: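 Cells were serum-starved overnight in 0.5% FBS, then given compound (10 μM single dose or serial dilutions, 0.3% DMSO) for 3 h at 37 °C. TGF-b1 at 10 ng/ml followed, 1 h for Panc-1 and 20 min for C2C12. Phospho-JNK (Thr183/Tyr185) was read by western blot of lysates.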
# MAPK p38 = MAPK p38 Activation Assay in Panc-1 (western blot); type: cell-based, Human; design: key: Y = yes; N = No; settings: at 10 μM
# Summary of the method: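 Cells serum-starved overnight in 0.5% FBS, then compound 3 h at 37° C (10 μM or serial dilutions for IC50; 0.3% DMSO). TGF-b1 10 ng/ml stimulation followed: 1 h for Panc-1, 20 min for C2C12. Phospho-p38 (Thr180/Tyr182) measured by western blot of lysates.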
# [1] = + SOS, read-out: KRas wild type + SOS: % inh.
# [2] = without SOS, read-out: KRas wild type: % inh.
# Sequence of KRas wild type (P01116 other isoform, or with tags, fused parts or gaps): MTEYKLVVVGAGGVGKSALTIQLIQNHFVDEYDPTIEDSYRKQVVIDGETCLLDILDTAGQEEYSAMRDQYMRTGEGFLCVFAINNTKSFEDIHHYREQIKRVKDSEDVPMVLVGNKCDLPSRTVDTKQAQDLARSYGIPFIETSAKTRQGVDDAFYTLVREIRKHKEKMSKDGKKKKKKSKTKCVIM
SMILES,inhibition at 20 µM (KRas wild type; [1]),inhibition at 20 µM (KRas wild type; [2]),Activation of JNK in PANC-1 (JNK),Activation of MAPK p38 in PANC-1 (MAPK p38)
"COCCCCOc1nc(-c2nccn2C)nc2sc(-c3ccn(C(C)C)n3)c(C)c12 [Compound 34, 6-(1-Isopropyl-1H-pyrazol-3-yl)-4-(4-methoxybutoxy)-5-methyl-2-(1-methyl-1H-imidazol-2-yl)thieno[2,3-d]pyrimidine]",0%,1 to 25%,Y,N
"COc1cc(Cn2c(-c3nccn3C)nc3sc(-c4ccn(C(C)C)n4)c(C)c3c2=O)ncn1 [Compound 35, 6-(1-Isopropyl-1H-pyrazol-3-yl)-3-((6-methoxypyrimidin-4-yl)methyl)-5-methyl-2-(1-methyl-1H-imidazol-2-yl)thieno[2,3-d]pyrimidin-4(3H)-one]",1 to 25%,1 to 25%,N,N
"COCCCn1c(-c2nccn2C)nc2sc(-c3ccn(C(C)C)n3)c(-c3ccccc3)c2c1=O [Compound 36, 6-(1-Isopropyl-1H-pyrazol-3-yl)-3-(3-methoxypropyl)-2-(1-methyl-1H-imidazol-2-yl)-5-phenylthieno[2,3-d]pyrimidin-4(3H)-one]",1 to 25%,1 to 25%,Y,Y

# Further lines, with some results ahead:
inhibition at 20 µM (KRas wild type; [1]),inhibition at 20 µM (KRas wild type; [2]),SMILES,Activation of JNK in PANC-1 (JNK),Activation of MAPK p38 in PANC-1 (MAPK p38)
1 to 25%,0%,"COCCCOc1nc(-c2nccn2C)nc2sc(-c3ccn(C(C)C)n3)c(-c3ccccc3)c12 [Compound 37, 6-(1-Isopropyl-1H-pyrazol-3-yl)-4-(3-methoxypropoxy)-2-(1-methyl-1H-imidazol-2-yl)-5-phenylthieno[2,3-d]pyrimidine]",N,Y
76 to 100%,46 to 75%,"COc1cccc(-c2sc3nc(-c4nccn4C)nc(N[C@H]4C[C@H](OC)C4)c3c2-c2ccccc2)c1F [Compound 40, 6-(2-Fluoro-3-methoxyphenyl)-N-((1r,3r)-3-methoxycyclobutyl)-2-(1-methyl-1H-imidazol-2-yl)-5-phenylthieno[2,3-d]pyrimidin-4-amine]",Y,Y
76 to 100%,76 to 100%,"COc1cccc(-c2sc3nc(-c4nccn4C)nc(N[C@H]4C[C@H](OC)C4)c3c2C)c1F [Compound 42, 6-(2-Fluoro-3-methoxyphenyl)-N-((1r,3r)-3-methoxycyclobutyl)-5-methyl-2-(1-methyl-1H-imidazol-2-yl)thieno[2,3-d]pyrimidin-4-amine]",Y,Y
76 to 100%,46 to 75%,"COc1nccc(-c2sc3nc(-c4nccn4C)nc(N[C@H]4C[C@H](OC)C4)c3c2-c2ccccc2)c1F [Compound 45, 6-(3-Fluoro-2-methoxypyridin-4-yl)-N-((1r,3r)-3-methoxycyclobutyl)-2-(1-methyl-1H-imidazol-2-yl)-5-phenylthieno[2,3-d]pyrimidin-4-amine]",Y,N
76 to 100%,46 to 75%,"COc1cc(-c2sc3nc(-c4nccn4C)nc(N[C@H]4C[C@H](OC)C4)c3c2-c2ccccc2)ccn1 [Compound 46, N-((1r,3r)-3-Methoxycyclobutyl)-6-(2-methoxypyridin-4-yl)-2-(1-methyl-1H-imidazol-2-yl)-5-phenylthieno[2,3-d]pyrimidin-4-amine]",Y,N
